# Results from BindingDB's records for doi:10.1021/jm00396a006 (Upjohn, 1988).
# Numbered stars: 1 amine (or outer) side, 2 acyl side, 3 side chain; on linkers, the order of the positions; unused ones are H or OH. Square brackets hold non-standard residues; d marks the D form. Peptide text beside a SMILES is read from it. * marks the point of attachment. ξ: configuration not given here. Sta(3ξ) = CC(C)C[C@H](N[*:1])C(O)CC(=O)[*:2]; X1 = CC(C)CC(N[*:1])C(O)CC(=O)[*:2]; For = O=C*
# Biological target: Renin (Sus scrofa)
# Assay: In vitro inhibitory activity towards porcine kidney renin
row,SMILES,IC50 [nM]
1,CC[C@H](C)[C@H](NC(=O)CC(O)[C@H](CC(C)C)NC(=O)[C@H](Cc1cnc[nH]1)NC(=O)[C@H](Cc1ccccc1)NC(=O)[C@@H]1CCCN1C(=O)[C@H](Cc1cn(C=O)c2ccccc12)NC(C)=O)C(N)=O (stereo partly drawn) [Ac-Ftr-Pro-Phe-His-Sta-Ile-NH2],120
2,CC(=O)N[C@@H](Cc1cn(C=O)c2ccccc12)C(=O)N1CCC[C@H]1C(=O)N[C@@H](Cc1ccccc1)C(=O)N[C@@H](Cc1cnc[nH]1)C(=O)NC(CC(C)C)C(O)CC(=O)N[C@H](C(=O)N[C@@H](Cc1cn(C=O)c2ccccc12)C(N)=O)C(C)C (stereo partly drawn) [Ac-Ftr-Pro-Phe-His-Sta-Val-Ftr-NH2] (Ac-W(For)PFH[X1]VW(For)-NH2),4.9
3,CC[C@H](C)[C@H](NC(=O)CC(O)[C@H](CC(C)C)NC(=O)[C@H](Cc1cnc[nH]1)NC(=O)[C@H](Cc1ccccc1)NC(=O)[C@@H]1CCCN1C(=O)[C@H](Cc1cnc[nH]1)NC(C)=O)C(N)=O (stereo partly drawn) [Ac-His-Pro-Phe-His-Sta-Ile-NH2] (Ac-HPFH[Sta(3ξ)]I-NH2),1500
